Data published in patent publication US8623924B2, “Compositions and methods for modulating metabolic pathways” (Nusirt Sciences, Inc., priority 2011, dated 2014).
Marks after values point to notes of the source that are not given here.

What was measured:
[1] = system: IL-6; assay: Inflammatory biomarker IL-6 in diet-induced obese mice; assay type: in vivo; details: 6 weeks on diet, low resveratrol 12.5 mg/kg diet, low HMB 2 g CaHMB/kg diet, high HMB 10 g CaHMB/kg diet, leucine 2.42% of diet
[2] = system: Adipocytes (3T3-L1); assay: Fatty acid oxidation (3H-palmitate) in 3T3-L1 adipocytes; assay type: cell-based; details: high (25 mM) glucose, 4 hours; leucine 0.5 mM, HMB 5 uM, resveratrol 200 nM; vs. control
Protocol: High glucose medium reduced fatty acid oxidation by 46% (p<0.05).
Fatty acid oxidation was measured using ^3H-labeled palmitate oxidation, with the ^3H label trapped as water as a result of the fat oxidation. The ^3H was then measured via scintillation counter.

[3] = system: C-reactive protein; assay: Inflammatory biomarker C-reactive protein in diet-induced obese mice; assay type: in vivo; details: 6 weeks on diet, low resveratrol 12.5 mg/kg diet, low HMB 2 g CaHMB/kg diet, high HMB 10 g CaHMB/kg diet, leucine 2.42% of diet
[4] = MicroPET/CT glucose and palmitate uptake in diet-induced obese mice; assay type: in vivo; details: 6 weeks on diet, low resveratrol 12.5 mg/kg diet, low HMB 2 g CaHMB/kg diet, high HMB 10 g CaHMB/kg diet, leucine 2.42% of diet
Source text: (§1) Six week old male c57/BL6 mice were fed a high-fat diet with fat increased to 45% of energy (Research Diets D12451) for 6 weeks to induce obesity.
MicroPET/CT (Glucose and Palmitate Uptake): At the end of the treatment period (6 weeks of treatment) subgroups of each treatment diet group (5 animals/group, 35 animals total) were used to measure whole body glucose and palmitate uptake via PET/CT Imaging. To visualize these compounds using microPET imaging, the glucose or palmitate was labeled with fluorine-18 (108 mins half life) or carbon-11 (20 mins half life), respectively. Each mouse was fasted for 4 hours, then anesthetized using 1-3% isoflurane delivered by nose cone or in a mouse-sized induction chamber purpose-built for small animal imaging protocols. While under anesthesia the mice were injected iv with <2 mCi of each tracer, then be left for a period of time (minutes to up ˜1 hour) to allow the uptake of the tracer. During the scan, mice were kept warm using a thermostatically controlled heated bed and were treated with ophthalmic ointment prior to scanning. Following the live scan the mice were returned to their cage and revived. Mice were monitored constantly during this time. Following live data acquisition the mice were sacrificed by isoflurane overdose and organs harvested for further experiments.

[5] = system: Adiponectin; assay: Adiponectin in diet-induced obese mice; assay type: in vivo; details: 6 weeks on diet, low resveratrol 12.5 mg/kg diet, low HMB 2 g CaHMB/kg diet, high HMB 10 g CaHMB/kg diet, leucine 2.42% of diet
[6] = target: T1, Sirt1 (Mus musculus, UniProt Q923E4); assay: Adipose tissue Sirt1 activity in diet-induced obese mice; assay type: in vivo; details: low dose of resveratrol, HMB, or their combinations with HMB or leucine (FIG. 10)
T1 construct: from tissue; host or cells: adipose tissue of c57/BL6 mice
T1 sequence (Q923E4 1-737): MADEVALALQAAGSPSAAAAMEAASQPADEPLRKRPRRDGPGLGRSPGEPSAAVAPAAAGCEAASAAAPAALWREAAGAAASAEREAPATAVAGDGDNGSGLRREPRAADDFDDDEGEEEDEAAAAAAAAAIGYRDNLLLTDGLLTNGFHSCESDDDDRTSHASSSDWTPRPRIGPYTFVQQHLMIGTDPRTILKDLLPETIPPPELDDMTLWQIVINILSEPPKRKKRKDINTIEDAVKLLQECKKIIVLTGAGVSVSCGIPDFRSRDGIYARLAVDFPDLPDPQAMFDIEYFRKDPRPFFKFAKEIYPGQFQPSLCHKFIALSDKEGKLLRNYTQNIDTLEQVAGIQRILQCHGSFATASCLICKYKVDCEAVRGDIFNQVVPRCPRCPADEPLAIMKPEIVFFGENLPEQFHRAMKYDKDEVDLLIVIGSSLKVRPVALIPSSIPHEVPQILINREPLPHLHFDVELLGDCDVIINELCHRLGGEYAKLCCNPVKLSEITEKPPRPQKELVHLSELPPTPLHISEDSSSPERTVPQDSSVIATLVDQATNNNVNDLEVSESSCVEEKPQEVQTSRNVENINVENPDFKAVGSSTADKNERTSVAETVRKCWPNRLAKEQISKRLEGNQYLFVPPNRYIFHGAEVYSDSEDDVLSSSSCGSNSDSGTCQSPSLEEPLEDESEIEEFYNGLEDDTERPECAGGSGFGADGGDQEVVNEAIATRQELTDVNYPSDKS

[7] = Oxygen consumption/substrate utilization (metabolic chambers) in diet-induced obese mice; assay type: in vivo; details: low resveratrol 12.5 mg/kg diet, low HMB 2 g CaHMB/kg diet, high HMB 10 g CaHMB/kg diet, leucine 2.42% of diet
Protocol: as §1
Oxygen Consumption/Substrate Utilization: at the end of the obesity induction period (day 0 of treatment group) and at 2 weeks and 6 weeks of treatment, oxygen consumption and substrate utilization was measured via metabolic chambers using the Comprehensive Lab Animal Monitoring Systems (CLAMS, Columbus Instruments, Columbus, Ohio) in subgroups of each treatment group. Each animal was placed in individual cages without bedding that allow automated, non-invasive data collection. Each cage is an indirect open circuit calorimeter that provides measurement of oxygen consumption, carbon dioxide production, and concurrent measurement of food intake. All mice were acclimatized to the chambers for 24 hours prior to the experiment and maintained under the regular 12:12 light:dark cycle with free access to water and food. All experiments were started in the morning and data were collected for 24 hours. Each chamber was passed with 0.6 l of air/min and was sampled for 2 min at 32-minute intervals. Exhaust O2 and CO2 content from each chamber was compared with ambient O2 and CO2 content. Food consumption was measured by electronic scales.

[8] = system: MCP-1; assay: Inflammatory biomarker MCP-1 in diet-induced obese mice; assay type: in vivo; details: 6 weeks on diet, low resveratrol 12.5 mg/kg diet, low HMB 2 g CaHMB/kg diet, high HMB 10 g CaHMB/kg diet, leucine 2.42% of diet
[9] = Indices of insulin sensitivity (plasma glucose, insulin, HOMAIR) in diet-induced obese mice; assay type: in vivo; details: 6 weeks on diet, low resveratrol 12.5 mg/kg diet, low HMB 2 g CaHMB/kg diet, high HMB 10 g CaHMB/kg diet, leucine 2.42% of diet
Source text: Insulin sensitivity can be measured using a variety of techniques, including HOMAIR. HOMAIR, which is the homeostasis model assessment of insulin resistance can be used as a screening index of changes in insulin sensitivity. HOMAIR can be calculated via standard formula from fasting plasma insulin and glucose as follows: HOMAIR=[Insulin (uU/mL)×glucose (mM)]/22.5.
as §1
(§2) At the of the treatment period (6 weeks) all animals were humanely euthanized, and blood and tissues collected for further experiments.

[10] = system: PGC-1α, NRF-1 and UCP3 genes; assay: Expression of mitochondrial regulatory and component genes; assay type: cell-based
[11] = Body weight, weight gain and visceral adiposity in diet-induced obese mice; assay type: in vivo; details: 6 weeks on diet, low resveratrol 12.5 mg/kg diet, low HMB 2 g CaHMB/kg diet, high HMB 10 g CaHMB/kg diet, leucine 2.42% of diet
Source text: as §1, §2

## CC(C)(O)CC(=O)O [HMB]
[1]
  IL-6 (pg/mL): 19.9 ± 3.1^a pg/mL
[2]
  increase in fatty acid oxidation, high glucose: 29%
[3]
  C-reactive protein: 98.6 ± 5.1 ng/mL
[4]
  Fat oxidation (PET palmitate uptake; Muscle SUV): 1.90 ± 0.29^a SUV
  Muscle Glucose Uptake (18F-deoxyglucose SUV): 2.99 ± 0.42^a SUV
[5]
  Adiponectin (ng/mL): 11.1 ± 1.6^a ng/mL
[6]
  adipose tissue Sirt1 activity: Neither resveratrol nor HMB exerted significant independent effects
[7]
  Heat Production: 0.526 ± 0.011^a
  Respiratory Exchange Ratio (24 hr RER): 0.844 ± 0.012^a
[8]
  MCP-1 (pg/mL): 116.8 ± 9.3^a pg/mL
[9]
  HOMAIR: 1.93 ± 0.32^a
[9]; plasma
  Glucose (mM): 4.28 ± 0.49^a mM
  Insulin (μU/mL): 8.3 ± 1.1^a μU/mL
[10]
  expression of mitochondrial regulatory (PGC-1α and NRF-1) and component (UCP3) genes: stimulated expression
[11]
  Visceral Adipose Volume (mm^3): 6184 ± 460^a mm^3
  Weight (g): 40.3 ± 2.1^a g
  Weight gain: 22.5 ± 1.2 g
